Experimental data taken from US11236085B2, “PD-1/PD-L1 inhibitors” (Gilead Sciences, Inc., priority 2018, dated 2022).

Key:
[1] = biological target: T1, PD-L1 (Homo sapiens, UniProt Q9NZQ7); assay: PD-L1/PD-L1 dimerization biochemical protein-protein interaction assay (ALPHA); conditions: 0.5 nM His tagged PD-L1 and 0.5 nM FLAG tagged PD-L1; compound induced dimerization; read-out: AC50 PDL1 Dimer 1 nM
T1 construct: determine if they can specifically dimerize the extracellular domains of PD-L1
Experimental: PD-L1/PD-L1 Dimerization Biochemical Protein-Protein Interaction Assay
Compounds were tested in biochemical protein-protein interaction assays to determine if they can specifically dimerize the extracellular domains of PD-L1. Dimerization of the proteins (His-tagged PD-L1 and FLAG-tagged PD-L1) is measured using a bead based Amplified Luminescent Proximity Homogeneous Assay (ALPHA) platform. […] Assays are performed in 25 mM Hepes (pH 7.4), 150 mM NaCl, 3.4 mM EDTA, 0.005% Tween 20, and 0.01% BSA. Final protein concentration in the assays were 0.5 nM (His tagged PD-L1) and 0.5 nM (FLAG tagged PD-L1). After an assay reaction time of 2 hours at 25° C., 20 μg/mL (final assay concentration) ALPHA assay acceptor beads (anti-His coated) were added and incubated for 60 minutes at 25° C. Binding was measured following a final 60 minute incubation with 40 μg/mL (final assay concentration) ALPHA assay donor beads (anti-FLAG coated). AC50 values were calculated from the fit of the dose-response curves to a four-parameter equation (Table 4).

[2] = biological target: T2, PD-1/PD-L1 (Homo sapiens, UniProt Q9NZQ7); assay: PD-1/PD-L1 biochemical protein-protein interaction assay (ALPHA); format: binding; conditions: 0.3 nM His tagged PD-L1, 2.5 nM biotinylated Fc-PD-1; 60 minutes at 25° C.; read-out: IC50 PD-L1-PD1
Experimental: PD-1/PD-L1 & CTLA/CD80 Biochemical Protein-Protein Interaction Assay
Compounds were tested in biochemical protein-protein interaction assays to determine if they can specifically block the interaction between the extracellular domains of PD-1/PD-L1 or CTLA/CD80. Binding of the protein pairs is measured using a bead based Amplified Luminescent Proximity Homogeneous Assay (ALPHA) platform. Binding of each protein pair results in proximity of the donor and acceptor beads which leads to an increase in ALPHA signal. Disruption of the protein-protein interaction with a test compound results in a decrease in ALPHA signal. Assays are performed in 25 mM Hepes (pH 7.4), 150 mM NaCl, 3.4 mM EDTA, 0.005% Tween 20, and 0.01% BSA. Final protein concentration in the assays were 0.3 nM (His tagged PD-L1), 2.5 nM (biotinylated Fc-PD-1), 1 nM (His tagged CTLA4) and 1 nM (biotinylated CD80). After an assay reaction time of 60 minutes at 25° C., binding was measured with addition of 20 μg/mL ALPHA assay acceptor beads (anti-His coated) and 20 µg/mL ALPHA assay donor beads (streptavidin coated). IC50 values were calculated from the fit of the dose-response curves to a four-parameter equation. Representative data are shown below in Table 3.
Target sequence in this assay (Q9NZQ7 19-238 limits assumed): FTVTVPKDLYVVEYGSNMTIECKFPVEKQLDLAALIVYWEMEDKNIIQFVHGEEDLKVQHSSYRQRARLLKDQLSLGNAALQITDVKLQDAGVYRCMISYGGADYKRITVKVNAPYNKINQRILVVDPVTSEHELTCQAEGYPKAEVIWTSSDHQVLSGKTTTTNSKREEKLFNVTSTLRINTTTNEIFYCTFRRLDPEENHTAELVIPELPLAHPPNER

[3] = biological target: T2, PD-1/PD-L1; assay: PD-1/PD-L1 NFAT reporter assay (co-culture of aAPC-PD-L1 CHO cells and Jurkat cells overexpressing PD-1, NFAT luciferase); format: cell-based; set-up: expressed in transfected cells; host or cells: CHO cells (aAPC-PD-L1) co-cultured with Jurkat cells overexpressing PD-1; conditions: co-culture incubated for 6 hrs at 37° C.; luciferase under NFAT control
Experimental: PD-1/PD-L1 NFAT Reporter Assay
Compounds were tested in a functional co-culture reporter assay in which TCR-mediated NFAT activity is inhibited by the engagement of PD-1 with PD-L1. […] CHO cells expressing surface-bound anti-CD3 antibodies and PD-L1 (artificial antigen presenting cells, aAPC-PD-L1) were first seeded overnight. Jurkat cells overexpressing PD-1 and expressing a luciferase construct under NFAT control are diluted in RPMI assay medium (RPMI 1640 with 2% FBS), mixed with compounds, and immediately seeded on the monolayer of aAPC-PD-L1. The co-culture is then incubated for 6 hrs at 37° C. Luciferase activity is assessed by adding the ONE-Glo reagent and measuring luminescence with a plate reader. EC50 values are calculated from the fit of the dose-response curves to a four-parameter equation (Table 4).
Target sequence in this assay (Q9NZQ7 19-290): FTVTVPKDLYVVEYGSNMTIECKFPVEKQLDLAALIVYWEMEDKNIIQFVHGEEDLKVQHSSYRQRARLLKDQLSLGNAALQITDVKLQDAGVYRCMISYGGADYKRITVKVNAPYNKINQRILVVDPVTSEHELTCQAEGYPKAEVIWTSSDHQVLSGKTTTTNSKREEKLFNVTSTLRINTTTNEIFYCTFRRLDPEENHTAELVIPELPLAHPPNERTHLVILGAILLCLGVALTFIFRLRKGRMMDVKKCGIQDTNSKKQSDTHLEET

T1 sequence (Q9NZQ7 19-238 limits assumed): as the sequence (Q9NZQ7 19-238 limits assumed) above
T1 sequence (Q9NZQ7 19-238 limits assumed): as above

SMILES | AC50 [1] [nM] | IC50 [2] [nM] | EC50 [3] [nM]
COc1nc(-c2cccc(-c3cccc(-c4nc5c(s4)CNCC5)c3Cl)c2Cl)ccc1CNCCO [Compound 31] | 314 | 0.431 | 674
COc1nc(-c2cccc(-c3cccc(-c4cc5c(s4)CCNC5)c3Cl)c2Cl)ccc1CN1CC2(CCC(=O)N2)C1 [Compound 32] | 181 | 1.14 | 288
COc1nc(-c2cccc(-c3cccc(-c4nc5c(s4)CNCC5)c3Cl)c2Cl)ccc1CNC[C@@H]1CCC(=O)N1 [Compound 35] | 281 | 0.814 | 105
COc1nc(-c2cccc(-c3cccc(-c4nc5c(s4)CCNC5)c3Cl)c2Cl)ccc1CNC[C@@H]1CCC(=O)N1 [Compound 36] | 256 | 0.588 | 142

Other lines, results leading:

AC50 [1] [nM] | IC50 [2] [nM] | EC50 [3] [nM] | SMILES
145 | 1.04 | 170 | COc1nc(-c2cccc(-c3cccc(-c4cc5c(s4)CCNC5)c3Cl)c2Cl)ccc1CNC[C@@H]1CCC(=O)N1 [Compound 33]
174 | 1.13 | 163 | COc1nc(-c2cccc(-c3cccc(-c4cc5c(s4)CNCC5)c3Cl)c2Cl)ccc1CNC[C@@H]1CCC(=O)N1 [Compound 34]
